Source: patent US10945771B2, “Azabicyclo[4.1.0]heptane allosteric modulators of the M4 muscarinic acetylcholine receptor” (Merck Sharp & Dohme Corp., priority 2017, dated 2021)

What follows are compounds tested against T1, human M4 muscarinic acetylcholine receptor (Homo sapiens, UniProt P08173) (assay: human FLIPR-based M4 PAM assay (Ca2+ dye fluorescence, CHO-K1 cells with human M4 receptor and Gαqi5)). Settings: inflection point (IP) of dose response curve, FLIPR Tetra, acetylcholine at 20% of maximum response.
T1 construct: expressed in transfected cells; host or cells: CHO-K1
T1 sequence (P08173 1-479): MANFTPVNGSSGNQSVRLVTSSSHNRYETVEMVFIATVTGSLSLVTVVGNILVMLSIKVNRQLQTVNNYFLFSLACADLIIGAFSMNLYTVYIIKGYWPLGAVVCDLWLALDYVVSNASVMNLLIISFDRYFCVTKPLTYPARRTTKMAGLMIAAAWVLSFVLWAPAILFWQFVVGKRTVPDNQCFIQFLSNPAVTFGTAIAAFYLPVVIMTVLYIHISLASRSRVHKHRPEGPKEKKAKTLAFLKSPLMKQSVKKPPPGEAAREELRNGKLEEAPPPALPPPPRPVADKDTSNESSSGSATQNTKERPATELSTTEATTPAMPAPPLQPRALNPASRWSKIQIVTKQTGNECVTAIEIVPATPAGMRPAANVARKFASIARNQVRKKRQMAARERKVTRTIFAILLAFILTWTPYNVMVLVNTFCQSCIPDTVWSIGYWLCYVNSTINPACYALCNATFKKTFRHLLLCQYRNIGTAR
Type: cell-based
Experimental: In a typical experiment the M4 muscarinic acetylcholine receptor modulating activity of the compounds of the present invention was determined in accordance with the following experimental method. CHO-K1 cells stably transfected with human M4 receptor and chimeric G-protein Gαqi5 (Coward P, et al., Analytical Biochemistry, 270:242-248 (1999)) are thawed from liquid N2 storage, resuspended in growth medium, plated in black, clear bottom 384 well plates, and incubated 16-20 hours at 37° C., 5% CO2. On the day of assay, growth medium is removed, the cells are washed 2 times with wash buffer, and cells are incubated in dye loading buffer at 37° C., 5% CO2 for ˜1 hour. Following dye loading the cell plates are placed in a FLIPR Tetra instrument and while monitoring dye fluorescence (excitation […]), 10 uL of test substance at increasing concentrations is added, and fluorescence values are recorded for 4 min. Next, 10 uL of acetylcholine is added (final concentration calculated so as to achieve 20% of the maximum acetycholine response), and the fluorescence reading is continued for 3.5 min. In some cases, a third addition of acetylcholine (final concentration calculated to achieve 70% of the maximal acetylcholine response) is performed. The resulting dose response curves are fit to a 4 parameter logistic equation and the final result is determined as the inflection point (IP) of the curve
CHO-K1 cells stably transfected with human M4 receptor and chimeric G-protein Gαqi5 are thawed from liquid N2 storage, resuspended in growth medium, plated in black, clear bottom 384 well plates, and incubated 16-20 hours at 37° C., 5% CO2.
On the day of assay, growth medium is removed, the cells are washed 2 times with wash buffer, and cells are incubated in dye loading buffer at 37° C., 5% CO2 for ˜1 h. Following dye loading the cell plates are placed in a FLIPR Tetra instrument and while monitoring dye fluorescence ([…]), 10 uL of test substance at increasing concentrations is added, and fluorescence values are recorded for 4 min. Next, 10 uL of acetylcholine is added (final concentration calculated so as to achieve 20% of the maximum acetycholine response), and the fluorescence reading is continued for 3.5 min. In some cases, a third addition of acetylcholine (final concentration calculated to achieve 70% of the maximal acetylcholine response) is performed.
`Cc1c(N2CCC(OCC3(C)CC3)C3CC32)nc2c(c1C)C(=O)NC2` (single isomer, unassigned) [Example 1, 3,4-dimethyl-2-(5-((1-methylcyclopropyl)methoxy)-2-azabicyclo[4.1.0]heptan-2-yl)-6,7-dihydro-5H-pyrrolo[3,4-b]pyridin-5-one] gave an EC50 of 39 nM. In the case of `Cc1c(N2CCC(OCC3(C)CC3)C3CC32)nc2c(c1C)C(=O)NC2` (single isomer, unassigned) [Example 2, 3,4-dimethyl-2-(5-((1-methylcyclopropyl)methoxy)-2-azabicyclo[4.1.0]heptan-2-yl)-6,7-dihydro-5H-pyrrolo[3,4-b]pyridin-5-one], the EC50 is reported as 1320 nM. For `Cc1cc2c(nc1N1CCC(OCC3(C)CC3)C3CC31)CNC2=O` (single isomer, unassigned) [Example 3, 3-methyl-2-(5-((1-methylcyclopropyl)methoxy)-2-azabicyclo[4.1.0]heptan-2-yl)-6,7-dihydro-5H-pyrrolo[3,4-b]pyridin-5-one], the EC50 was 40 nM. Compound `Cc1cc2c(nc1N1CCC(OCC3(C)CC3)C3CC31)CNC2=O` (single isomer, unassigned) [Example 4, 3-methyl-2-(5-((1-methylcyclopropyl)methoxy)-2-azabicyclo[4.1.0]heptan-2-yl)-6,7-dihydro-5H-pyrrolo[3,4-b]pyridin-5-one] has an EC50 of 1670 nM. For `Cc1c(N2CCC(OCC3(C)CC3)C3CC32)nc2c(c1C)C(=O)N(C)C2CO` (single isomer, unassigned) [Example 5, 7-(hydroxymethyl)-3,4,6-trimethyl-2-(5-((1-methylcyclopropyl)methoxy)-2-azabicyclo[4.1.0]heptan-2-yl)-6,7-dihydro-5H-pyrrolo[3,4-b]pyridin-5-one], the EC50 was 117 nM. `Cc1c(N2CCC(OCC3(C)CC3)C3CC32)nc2c(c1C)C(=O)N(C)C2CO` (single isomer, unassigned) [Example 6, 7-(hydroxymethyl)-3,4,6-trimethyl-2-(5-((1-methylcyclopropyl)methoxy)-2-azabicyclo[4.1.0]heptan-2-yl)-6,7-dihydro-5H-pyrrolo[3,4-b]pyridin-5-one] was tested, and the EC50 was 711 nM. Work on `Cc1c(N2CCC(OCC3(C)CC3)C3CC32)nc2c(c1C)C(=O)N(C)C2CO` (single isomer, unassigned) [Example 7, 7-(hydroxymethyl)-3,4,6-trimethyl-2-(5-((1-methylcyclopropyl)methoxy)-2-azabicyclo[4.1.0]heptan-2-yl)-6,7-dihydro-5H-pyrrolo[3,4-b]pyridin-5-one] yielded an EC50 of 659 nM. `Cc1c(N2CCC(OCC3(C)CC3)C3CC32)nc2c(c1C)C(=O)N(C)C2CO` (single isomer, unassigned) [Example 8, 7-(hydroxymethyl)-3,4,6-trimethyl-2-(5-((1-methylcyclopropyl)methoxy)-2-azabicyclo[4.1.0]heptan-2-yl)-6,7-dihydro-5H-pyrrolo[3,4-b]pyridin-5-one] was tested, and the EC50 was 3000 nM. `CCc1cc2c(nc1N1CCC(OCC3(C)CC3)C3CC31)C(CO)N(C)C2=O` (single isomer, unassigned) [Example 9, 3-ethyl-7-(hydroxymethyl)-6-methyl-2-(5-((1-methylcyclopropyl)methoxy)-2-azabicyclo[4.1.0]heptan-2-yl)-6,7-dihydro-5H-pyrrolo[3,4-b]pyridin-5-one] was tested, and the EC50 was 8090 nM. In the case of `CCc1cc2c(nc1N1CCC(OCC3(C)CC3)C3CC31)C(CO)N(C)C2=O` (single isomer, unassigned) [Example 10, 3-ethyl-7-(hydroxymethyl)-6-methyl-2-(5-((1-methylcyclopropyl)methoxy)-2-azabicyclo[4.1.0]heptan-2-yl)-6,7-dihydro-5H-pyrrolo[3,4-b]pyridin-5-one], the EC50 is reported as 47 nM. Work on `CCc1cc2c(nc1N1CCC(OCC3(C)CC3)C3CC31)C(CO)N(C)C2=O` (single isomer, unassigned) [Example 11, 3-ethyl-7-(hydroxymethyl)-6-methyl-2-(5-((1-methylcyclopropyl)methoxy)-2-azabicyclo[4.1.0]heptan-2-yl)-6,7-dihydro-5H-pyrrolo[3,4-b]pyridin-5-one] yielded an EC50 of 742 nM. Compound `CCc1cc2c(nc1N1CCC(OCC3(C)CC3)C3CC31)C(CO)N(C)C2=O` (single isomer, unassigned) [Example 12, 3-ethyl-7-(hydroxymethyl)-6-methyl-2-(5-((1-methylcyclopropyl)methoxy)-2-azabicyclo[4.1.0]heptan-2-yl)-6,7-dihydro-5H-pyrrolo[3,4-b]pyridin-5-one] has an EC50 of 506 nM. In the case of `Cc1c(N2CCC(OCC3(C)CC3)C3CC32)nc2c(c1C)C(=O)N(CCC#N)C2` (single isomer, unassigned) [Example 15, 3-(3,4-dimethyl-2-(5-((1-methylcyclopropyl)methoxy)-2-azabicyclo[4.1.0]heptan-2-yl)-5-oxo-5,7-dihydro-6H-pyrrolo[3,4-b]pyridin-6-yl)propanenitrile], the EC50 is reported as 50 nM. With `Cc1c(N2CCC(OCC3(C)CC3)C3CC32)nc2c(c1C)C(=O)N(CCC#N)C2` (single isomer, unassigned) [Example 16, 3-(3,4-dimethyl-2-(5-((1-methylcyclopropyl)methoxy)-2-azabicyclo[4.1.0]heptan-2-yl)-5-oxo-5,7-dihydro-6H-pyrrolo[3,4-b]pyridin-6-yl)propanenitrile] the EC50 was 1530 nM. Work on `Cc1c(N2CCC(OCC3(C)CC3)C3CC32)nc2c(c1C)C(=O)N(CCS(C)(=O)=O)C2` (single isomer, unassigned) [Example 17, 3,4-dimethyl-2-(5-((1-methylcyclopropyl)methoxy)-2-azabicyclo[4.1.0]heptan-2-yl)-6-(2-(methylsulfonyl)ethyl)-6,7-dihydro-5H-pyrrolo[3,4-b]pyridin-5-one] yielded an EC50 of 103 nM. For `Cc1c(N2CCC(OCC3(C)CC3)C3CC32)nc2c(c1C)C(=O)N(CCS(C)(=O)=O)C2` (single isomer, unassigned) [Example 18], the EC50 was 20200 nM. `Cc1c(N2CCC(OCC3(C)CC3)C3CC32)nc2c(c1C)C(=O)N(CC(C)(C)O)C2` (single isomer, unassigned) [Example 20, 6-(2-hydroxy-2-methylpropyl)-3,4-dimethyl-2-(5-((1-methylcyclopropyl)methoxy)-2-azabicyclo[4.1.0]heptan-2-yl)-6,7-dihydro-5H-pyrrolo[3,4-b]pyridin-5-one] showed an EC50 of 12000 nM. `Cc1c(N2CCC(OCC3(C)CC3)C3CC32)nc2c(c1C)C(=O)N1CCC(O)CC21` (single isomer, unassigned) [Example 21, 9-hydroxy-3,4-dimethyl-2-(5-((1-methylcyclopropyl)methoxy)-2-azabicyclo[4.1.0]heptan-2-yl)-8,9,10,10a-tetrahydropyrido[2,3-a]indolizin-5(7H)-one] was tested, and the EC50 was 157 nM. `Cc1c(N2CCC(OCC3(C)CC3)C3CC32)nc2c(c1C)C(=O)N1CCC(O)CC21` (single isomer, unassigned) [Example 22, 9-hydroxy-3,4-dimethyl-2-(5-((1-methylcyclopropyl)methoxy)-2-azabicyclo[4.1.0]heptan-2-yl)-8,9,10,10a-tetrahydropyrido[2,3-a]indolizin-5(7H)-one] gave an EC50 of 116 nM. For `Cc1c(N2CCC(OCC3(C)CC3)C3CC32)nc2c(c1C)C(=O)N1CCC(O)CC21` (single isomer, unassigned) [Example 23, 9-hydroxy-3,4-dimethyl-2-(5-((1-methylcyclopropyl)methoxy)-2-azabicyclo[4.1.0]heptan-2-yl)-8,9,10,10a-tetrahydropyrido[2,3-a]indolizin-5(7H)-one], the EC50 was 2350 nM. Compound `Cc1c(N2CCC(OCC3(C)CC3)C3CC32)nc2c(c1C)C(=O)N1CCC(O)CC21` (single isomer, unassigned) [Example 24, 9-hydroxy-3,4-dimethyl-2-(5-((1-methylcyclopropyl)methoxy)-2-azabicyclo[4.1.0]heptan-2-yl)-8,9,10,10a-tetrahydropyrido[2,3-a]indolizin-5(7H)-one] has an EC50 of 2440 nM.
